Results reported in patent US6936622B2, “6-phenylbenzonaphthyridines” (Altana Pharma AG, priority 2001, dated 2005).
Where a name gives a salt, the structure may show the parent alone.

Columns and labels:
PDE4 (cAMP-specific) = assay: Inhibition of PDE isoenzymes: PDE4; type: biochemical; conditions: cytosol of human polymorphonuclear leukocytes (PMNL), cAMP as substrate, motapizone 1 μM
Experimental: (§1) 1. Inhibition of PDE Isoenzymes
(§2) The PDE activity was determined according to Thompson et al. (Adv Cycl Nucl Res 10: 69-92, 1979) with some modifications (Bauer and Schwabe, Naunyn-Schmiedeberg's Arch Pharmacol 311: 193198, 1980). The test samples contained 20 mM Tris (pH 7.4), 5 mM MgCl2, 0.5 μM cAMP or cGMP, [^3H]cAMP or [^3H]cGMP (about 30 000 cpm/sample), the PDE isoenzyme-specific additives described in greater detail below, the indicated concentrations of inhibitor and an aliquot of the enzyme solution in a total sample volume of 200 μl. Dilution series of the compounds according to the invention were prepared in DMSO and further diluted in the samples [1:100 (v/v)], to give the desired end concentration of the inhibitors at a DMSO concentration of 1% (v/v), which for its part has only a minute effect on PDE activity.
(§3) After preincubation at 37° C. for 5 minutes, the reaction was started by addition of the substrate (cAMP or cGMP). The samples were incubated at 37° C. for a further 15 min. The reaction was terminated by addition of 50 μl 0.2 N HCl. After cooling on ice for 10 minutes and addition of 25 μg 5′-nucleotidase (snake venom from Crotalus atrox), the mixture was again incubated at 37° C. for 10 min and the samples were then applied to QAE Sephadex A-25 columns (sample volume 1 ml). The columns were eluted with 2 ml of 30 mM ammonium formate (pH 6.0). The radioactivity of the eluate was measured and corrected by the corresponding blank values (measured in the presence of denatured protein); the blank values were less than 5% of the total radioactivity. In no case did the proportion of hydrolyzed nucleotide exceed 30% of the original substrate concentration.
PDE4 (cAMP-specific) was investigated in the cytosol of human polymorphonuclear leukocytes (PMNL) [isolated from leukocyte concentrates, see Schudt et al., Arch Pharmacol 1991: 344, 682-690] using cAMP as substrate. The PDE3 inhibitor motapizone (1 μM) was used to suppress the PDE3 activity emanating from contaminated platelets.
(§4) The IC50 values were determined from the concentration-inhibition curves by nonlinear regression.

PDE3 (cGMP-inhibited) = target: T1, PDE3 (cGMP-inhibited) (Homo sapiens, UniProt Q14432); assay: Inhibition of PDE isoenzymes: PDE3; type: biochemical; conditions: homogenates of human platelets, cAMP or cGMP as substrate; read-out: PDE3 [-log IC50, mol/l] (converted)
T1 construct: investigated in homogenates of human platelets; from tissue; host or cells: homogenates of human platelets
Experimental: as §1, §2, §3
PDE3 (cGMP-inhibited) was investigated in homogenates of human platelets (see Schudt et al., Biochem Pharmacol 1991: 42, 153-162) using cAMP or cGMP as substrate.
as §4

T1 sequence (Q14432 whole entry): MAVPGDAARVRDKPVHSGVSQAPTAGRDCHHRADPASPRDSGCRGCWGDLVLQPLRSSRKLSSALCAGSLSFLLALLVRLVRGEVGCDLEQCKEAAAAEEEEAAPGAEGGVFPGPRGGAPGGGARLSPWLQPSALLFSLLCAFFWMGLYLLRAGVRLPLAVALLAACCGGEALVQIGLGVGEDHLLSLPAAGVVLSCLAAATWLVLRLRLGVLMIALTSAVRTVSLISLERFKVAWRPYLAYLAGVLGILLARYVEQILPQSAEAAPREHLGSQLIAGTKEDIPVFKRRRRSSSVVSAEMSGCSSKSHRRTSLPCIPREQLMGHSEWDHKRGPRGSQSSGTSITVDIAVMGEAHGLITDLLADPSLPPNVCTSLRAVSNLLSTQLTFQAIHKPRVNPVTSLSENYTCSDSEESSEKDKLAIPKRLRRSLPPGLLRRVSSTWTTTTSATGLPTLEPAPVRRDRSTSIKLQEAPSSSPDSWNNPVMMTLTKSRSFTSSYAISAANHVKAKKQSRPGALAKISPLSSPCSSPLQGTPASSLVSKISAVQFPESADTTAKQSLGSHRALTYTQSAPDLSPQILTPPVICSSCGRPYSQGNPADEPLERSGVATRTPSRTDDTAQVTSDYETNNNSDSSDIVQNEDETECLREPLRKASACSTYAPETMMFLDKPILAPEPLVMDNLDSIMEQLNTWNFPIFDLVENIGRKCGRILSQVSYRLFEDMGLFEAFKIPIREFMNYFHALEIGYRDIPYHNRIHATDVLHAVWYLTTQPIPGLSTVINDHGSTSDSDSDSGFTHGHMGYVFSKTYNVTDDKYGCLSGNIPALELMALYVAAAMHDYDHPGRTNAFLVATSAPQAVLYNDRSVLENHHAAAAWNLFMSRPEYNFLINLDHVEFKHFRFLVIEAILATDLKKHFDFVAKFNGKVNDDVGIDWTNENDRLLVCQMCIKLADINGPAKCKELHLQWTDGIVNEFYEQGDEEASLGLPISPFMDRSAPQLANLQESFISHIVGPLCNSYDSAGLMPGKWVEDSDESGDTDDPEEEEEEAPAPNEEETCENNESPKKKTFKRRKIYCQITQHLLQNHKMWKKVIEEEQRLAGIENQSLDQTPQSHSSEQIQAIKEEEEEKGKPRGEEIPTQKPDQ

SMILES	melting point [°C]	PDE4 [-log IC50, mol/l] (PDE4 (cAMP-specific))	IC50 (PDE3 (cGMP-inhibited)) [nM]
COc1cc2c(cc1OC)[C@@H]1CN(C)CC[C@@H]1N=C2c1ccc(C(=O)N=C(N(C)C)N(C)C)cc1.Cl	161 to 166		
CCOc1cc2c(cc1OC)C(c1ccc(C(=O)NC(=N)N3CCOCC3)cc1)=NC1CCN(C)CC21 (stereo not drawn) (as salt: hydrochloride) [Compound 1, 4-[(+)-cis-9-Ethoxy-8-methoxy-2-methyl-1,2,3,4,4a,10b-hexahydro[c][1,6]naphthyridin-yl)-N-(1-imino-1-morpholin-4-ylmethyl)]benzamide dihydrochloride]	208 to 218		
CCOc1cc2c(cc1OC)C(c1ccc(C(=O)NC(=N)N(CC)CC)cc1)=NC1CCN(C)CC21 (stereo not drawn) (as salt: hydrochloride) [Compound 2, N′-{1-[4-((+)-cis-9-Ethoxy-8-methoxy-2-methyl-1,2,3,4,4a,10b-hexahydro[c][1,6]naphthyridin-6-yl)phenyl]methanoyl}-N,N-diethylguanidine dihydrochloride]	194 to 203		
CCOc1cc2c(cc1OC)C(c1ccc(C(=O)NC(=N)N(C)C)cc1)=NC1CCN(C)CC21 (stereo not drawn) (as salt: hydrochloride) [Compound 3, N′{1-[4-((+)-cis-9-Ethoxy-8-methoxy-2-methyl-1,2,3,4,4a,10b-hexahydro[c][1,6[-naphthyridin-6-yl)phenyl]methanoyl}-N,N-dimethylguanidinedihydrochloride]	134 to 141		
CCOc1cc2c(cc1OC)C(c1ccc(C(=O)NC(=N)N(C)CCO)cc1)=NC1CCN(C)CC21 (stereo not drawn) (as salt: hydrochloride) [Compound 4, N′-{1-[4-((+)-cis-9-Ethoxy-8-methoxy-2-methyl-1,2,3,4,4a,10b-hexahydro[c][1,6]naphthyridin-6-yl)phenyl]methanoyl}-N-(2-hydroxyethyl)-N-methylguanidine dihydrochloride]	172 to 179		
CCOc1cc2c(cc1OC)C(c1ccc(C(=O)NC(=N)N)cc1)=N[C@H]1CCN(C)C[C@@H]21 (relative stereo) [Compound 7, N-{1-[4-((−)-cis-9-Ethoxy-8-methoxy-2-methyl-1,2,3,4,4a,10b-hexahydro-benzo[c]-[1,6]naphthyridin-6-yl)-phenyl]-methanoyl}guanidine]		8.83	195
CCOc1cc2c(cc1OC)C(c1ccc(C(=O)NC(=N)NC)cc1)=N[C@H]1CCN(C)C[C@@H]21 (relative stereo) [Compound 14, N-{1-[4-((−)-cis-9-Ethoxy-8-methoxy-2-methyl-1,2,3,4,4a,10b-hexahydro-benzo[c][1,6]naphthyridin-6-yl)-phenyl]-methanoyl}-N′-methyl-guanidine]		8.82	309
CCOc1cc2c(cc1OC)C(c1ccc(C(=O)NC(=N)NC(C)C)cc1)=N[C@H]1CCN(C)C[C@@H]21 (relative stereo) [Compound 15, N-{1-[4-((−)-cis-9-Ethoxy-8-methoxy-2-methyl-1,2,3,4,4a,10b-hexahydro-benzo[c][1,6]naphthyridin-6-yl)-phenyl]-methanoyl}-N′-isopropyl-guanidine]		9.11	155
CCCNC(=N)NC(=O)c1ccc(C2=N[C@H]3CCN(C)C[C@H]3c3cc(OCC)c(OC)cc32)cc1 (relative stereo) [Compound 16, N-{1-[4-((−)-cis-9-Ethoxy-8-methoxy-2-methyl-1,2,3,4,4a,10b-hexahydro-benzo[c][1,6]naphthyridin-6-yl)-phenyl]-methanoyl}-N′-propyl-guanidine]		9.65	166
CCOc1cc2c(cc1OC)C(c1ccc(C(=O)NC(=N)NCC(C)C)cc1)=N[C@H]1CCN(C)C[C@@H]21 (relative stereo) [Compound 17, N-{1-[4-((−)-cis-9-Ethoxy8-methoxy-2-methyl-1,2,3,4,4a,10b-hexahydro-benzo[c][1,6]naphthyridin-6-yl)-phenyl]-methanoyl}-N′-isobutyl-guanidine]		9.34	123
CCNC(=N)NC(=O)c1ccc(C2=N[C@H]3CCN(C)C[C@H]3c3cc(OCC)c(OC)cc32)cc1 (relative stereo) [Compound 18, N-{1-[4-((−)-cis-9-Ethoxy-8-methoxy-2-methyl-1,2,3,4,4a,10b-hexahydro-benzo[c][1,6]naphthyridin-6-yl)-phenyl]-methanoyl}-N′-ethyl-guanidine]		8.76	245
CCOc1cc2c(cc1OC)C(c1ccc(C(=O)NC(=N)NC3CCCCC3)cc1)=N[C@H]1CCN(C)C[C@@H]21 (relative stereo) [Compound 19, N-Cyclohexyl-N′-{1-[4-((−)-cis-9-ethoxy-8-methoxy-2-methyl-1,2,3,4,4a,10b-hexahydro-benzo [c][1,6]naphthyridin-6-yl)-phenyl]-methanoyl}-guanidine]		9.50	132
CCOc1cc2c(cc1OC)C(c1ccc(C(=O)NC(=N)NCC3CCCCC3)cc1)=N[C@H]1CCN(C)C[C@@H]21 (relative stereo) [Compound 20, N-Cyclohexylmethyl-N′-{1-[4-((−)-cis-9-ethoxy-8-methoxy-2-methyl-1,2,3,4,4a,10b-hexahydro-benzo[c][1,6]naphthyridin-6-yl)-phenyl]-methanoyl}-guanidine]		9.65	97.7
CCCCNC(=N)NC(=O)c1ccc(C2=N[C@H]3CCN(C)C[C@H]3c3cc(OCC)c(OC)cc32)cc1 (relative stereo) [Compound 21, N-Butyl-N′-{1-[4-((−)-cis-9-ethoxy-8-methoxy-2-methyl-1,2,3,4,4a,10b-hexahydro-benzo[c][1,6]naphthyridin-6-yl)-phenyl]-methanoyl}-guanidine]		9.49	129
CCOc1cc2c(cc1OC)C(c1ccc(C(=O)N=C(N(C)C)N(C)C)cc1)=NC1CCN(C)CC21 (single isomer, unassigned) [Compound 5, N″{1-[4-((−)-cis-9-Ethoxy-8-methoxy-2-methyl-1,2,3,4,4a,10b-hexahydro[c][1.6]naphthyridin-6-yl)phenyl]methanoyl}-N,N,N′,N′-tetramethylguanidine hydrochloride]		9.01	129
CCOc1cc2c(cc1OC)C(c1ccc(C(=O)NC(=N)N3CCOCC3)cc1)=NC1CCN(C)CC21 (stereo not drawn) [Compound 1, 4-[(+)-cis-9-Ethoxy-8-methoxy-2-methyl-1,2,3,4,4a,10b-hexahydro[c][1,6]naphthyridin-yl)-N-(1-imino-1-morpholin-4-ylmethyl)]benzamide dihydrochloride]		9.22	135
CCOc1cc2c(cc1OC)C(c1ccc(C(=O)NC(=N)N(CC)CC)cc1)=NC1CCN(C)CC21 (stereo not drawn) [Compound 2, N′-{1-[4-((+)-cis-9-Ethoxy-8-methoxy-2-methyl-1,2,3,4,4a,10b-hexahydro[c][1,6]naphthyridin-6-yl)phenyl]methanoyl}-N,N-diethylguanidine dihydrochloride]		9.77	42.7
CCOc1cc2c(cc1OC)C(c1ccc(C(=O)NC(=N)N(C)C)cc1)=NC1CCN(C)CC21 (stereo not drawn) [Compound 3, N′{1-[4-((+)-cis-9-Ethoxy-8-methoxy-2-methyl-1,2,3,4,4a,10b-hexahydro[c][1,6[-naphthyridin-6-yl)phenyl]methanoyl}-N,N-dimethylguanidinedihydrochloride]		9.39	87.1
CCOc1cc2c(cc1OC)C(c1ccc(C(=O)NC(=N)N(C)CCO)cc1)=NC1CCN(C)CC21 (stereo not drawn) [Compound 4, N′-{1-[4-((+)-cis-9-Ethoxy-8-methoxy-2-methyl-1,2,3,4,4a,10b-hexahydro[c][1,6]naphthyridin-6-yl)phenyl]methanoyl}-N-(2-hydroxyethyl)-N-methylguanidine dihydrochloride]		8.34	1150
CCOc1cc2c(cc1OC)C(c1ccc(C(=O)N=C(N)N3CCN(C)CC3)cc1)=NC1CCN(C)CC21 (stereo not drawn) [Compound 6, N-[1-Amino-1-(4-methylpiperazin-1-yl)methylene]-4-((+)-cis-9-ethoxy-8-methoxy-2-methyl-1,2,3,4,4a,10b-hexahydro[c][1,6]naphthyridin-6-yl)benzamide dihydrochloride]		9.13	363
